Data on nine molecules can be found in PubChem BioAssay (NCI).

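Where inhibition never reached the appropriate level, the endpoint shown equals the highest concentration tested. Otherwise, values were interpolated linearly from a five-concentration, 48-hour dose response in 96-well plates. The concentration for 50% growth inhibition is given as GI50. TGI: total growth inhibition.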

Some test systems named below: 786-0 renal; SF-295 CNS; HL-60(TB) leukemia; EKVX NSCLC; A549 NSCLC; HCT-15 colon; BT-549 breast; MOLT-4 leukemia; CCRF-CEM leukemia; SR leukemia.
What all share (assay): inhibition of tumour cell growth, NCI panel, 48 h

Turning to `CC1(C)CC2=NO[Se]3=C2C(=NO3)C1`, the TGI was 12.4 µM with 786-0 renal; 7.6 µM in the experiment on SF-295 CNS; 5.08 µM in the experiment on HL-60(TB) leukemia; 9.68 µM in the experiment with EKVX NSCLC; 14.2 µM with A549 NSCLC; 11.5 µM in the experiment on HCT-15 colon. The TGI in the experiment with BT-549 breast was found to be 7.28 µM; with MOLT-4 leukemia, 9.41 µM; with CCRF-CEM leukemia, 30.4 µM.
As to `COc1cc(NC(=O)COc2ccccc2)c(C(N)=O)cc1OC`, the GI50 in the experiment with 786-0 renal was 7.32 µM; with SF-295 CNS it was 0.93 µM; in the experiment with HL-60(TB) leukemia, 0.293 µM; in the experiment with A549 NSCLC, 0.917 µM; in the experiment on HCT-15 colon, 0.804 µM; in the experiment on BT-549 breast, 0.77 µM. Besides, the GI50 in the experiment on MOLT-4 leukemia is 2.91 µM; in the experiment on SR leukemia, 0.515 µM; in the experiment with CCRF-CEM leukemia it was 0.562 µM. In addition, the TGI in the experiment with 786-0 renal is 38.8 µM; in the experiment on SF-295 CNS, 16.6 µM; in the experiment with HL-60(TB) leukemia it was 7.25 µM; in the experiment with A549 NSCLC, more than 100 µM; with HCT-15 colon it was more than 100 µM; with BT-549 breast, more than 100 µM. Moreover, the TGI in the experiment with MOLT-4 leukemia, in the experiment on SR leukemia and with CCRF-CEM leukemia was more than 100 µM in each case.
For `COc1cc2c(cc1OCCN1CCN(CCN3C(=O)c4cccc5cccc(c45)C3=O)CC1)N=C[C@@H]1CCCN1C2=O`, the GI50 in the experiment with 786-0 renal is 18.2 µM; in the experiment with SF-295 CNS it was 22.9 µM; in the experiment with EKVX NSCLC it was 21.1 µM; with A549 NSCLC, 18.7 µM; in the experiment with HCT-15 colon, 15.8 µM; with BT-549 breast, 19 µM. For the same molecule, the GI50 is 24.6 µM with MOLT-4 leukemia, 19.7 µM with SR leukemia and 19.9 µM in the experiment with CCRF-CEM leukemia. Moreover, the TGI in the experiment with 786-0 renal was 33.4 µM; in the experiment on SF-295 CNS, 41.1 µM; with EKVX NSCLC it was 45.7 µM; with A549 NSCLC it was 47.3 µM; in the experiment with HCT-15 colon, 31.1 µM; in the experiment with BT-549 breast, 34.9 µM. Moreover, the TGI in the experiment on MOLT-4 leukemia was found to be 62.2 µM; with SR leukemia it was 41.8 µM; in the experiment with CCRF-CEM leukemia, 39 µM.
Consider `COc1ccc(-c2c(Nc3ccccn3)nc3c(C4=CCCCC4)c(-c4ccccc4)[nH]n3c2=O)cc1`, for which the GI50 in the experiment on 786-0 renal was 2.63 µM; in the experiment on SF-295 CNS, 2.48 µM; in the experiment on EKVX NSCLC it was 2.97 µM; with A549 NSCLC, 1.94 µM; in the experiment on HCT-15 colon it was 1.64 µM; in the experiment with BT-549 breast, 1.88 µM. In addition, in the experiment with CCRF-CEM leukemia, the GI50 is 1.22 µM. Moreover, the TGI with 786-0 renal is 16.3 µM; with SF-295 CNS, 14 µM; in the experiment on EKVX NSCLC it was 36.9 µM; with A549 NSCLC, more than 100 µM; in the experiment on HCT-15 colon, more than 100 µM; in the experiment with BT-549 breast, 17.6 µM. In the experiment with CCRF-CEM leukemia, this molecule came in with a TGI of 6.58 µM.
On to `O=c1c(Oc2ccc(F)cc2F)cc2cnc(NC3CCOCC3)nc2n1C1CC1`, for which the GI50 in the experiment on 786-0 renal, in the experiment with SF-295 CNS, with HL-60(TB) leukemia, with A549 NSCLC, in the experiment with HCT-15 colon and in the experiment with BT-549 breast was more than 25 µM throughout. The GI50 in the experiment on MOLT-4 leukemia, in the experiment on SR leukemia and in the experiment with CCRF-CEM leukemia was more than 25 µM each time. The TGI in the experiment with 786-0 renal, in the experiment on SF-295 CNS, with HL-60(TB) leukemia, in the experiment with A549 NSCLC, with HCT-15 colon and in the experiment with BT-549 breast was more than 25 µM in each case. Besides, the TGI with MOLT-4 leukemia, in the experiment with SR leukemia and in the experiment with CCRF-CEM leukemia was more than 25 µM each time.
Take `OCc1ccc(N2CCc3ccc(F)cc3C2)cc1Cl`: the GI50 was 3.11 µM with 786-0 renal; 0.0728 µM in the experiment with SF-295 CNS; 1.12 µM in the experiment with HL-60(TB) leukemia; 0.516 µM in the experiment on A549 NSCLC; 2.82 µM in the experiment on HCT-15 colon; 15.2 µM in the experiment with BT-549 breast. Also, the GI50 in the experiment with MOLT-4 leukemia was 4.48 µM; with SR leukemia, 2.9 µM; in the experiment on CCRF-CEM leukemia it was 2.6 µM. The TGI came out at 23.8 µM in the experiment with 786-0 renal; 1.96 µM with SF-295 CNS; 14.5 µM in the experiment with HL-60(TB) leukemia; 19.8 µM in the experiment with A549 NSCLC; 18.8 µM in the experiment on HCT-15 colon; 29.3 µM in the experiment on BT-549 breast. Besides, the values for the TGI in the experiment on MOLT-4 leukemia, in the experiment on SR leukemia and with CCRF-CEM leukemia were 30.5 µM, 17.3 µM and 9.97 µM, respectively.
With `CN(C)[C@@H]1C(=O)C(C(=O)NCc2nc3[nH]cnc(=S)c3[nH]2)=C(O)[C@@]2(O)C(=O)C3=C(O)c4c(O)cccc4[C@@](C)(O)[C@H]3C[C@@H]12`, the GI50 in the experiment on 786-0 renal is 3.78 µM; in the experiment on SF-295 CNS it was more than 100 µM; with EKVX NSCLC, more than 100 µM; with A549 NSCLC, more than 100 µM; with HCT-15 colon it was 5.66 µM; in the experiment on BT-549 breast, more than 100 µM. Also, the GI50 was 5.04 µM in the experiment with MOLT-4 leukemia, 1.92 µM with SR leukemia and 1.02 µM in the experiment with CCRF-CEM leukemia. The TGI in the experiment with 786-0 renal, in the experiment with SF-295 CNS, in the experiment with EKVX NSCLC, in the experiment with A549 NSCLC, in the experiment on HCT-15 colon and in the experiment with BT-549 breast was more than 100 µM in each case. The TGI with MOLT-4 leukemia, in the experiment with SR leukemia and in the experiment on CCRF-CEM leukemia was more than 100 µM throughout.
For the molecule `O=C(O)c1cn(C2CC2)c2cc(N3CCN(C(=O)N(c4ccccc4)c4nc(-c5ccccc5)cs4)CC3)c(F)cc2c1=O`, the GI50 in the experiment with 786-0 renal is 0.417 µM; in the experiment on SF-295 CNS, 0.305 µM; in the experiment with EKVX NSCLC, 0.397 µM; with A549 NSCLC, 0.3 µM; in the experiment on HCT-15 colon, 0.308 µM; with BT-549 breast it was 0.349 µM. In addition, the GI50 in the experiment on CCRF-CEM leukemia was 0.276 µM. The TGI in the experiment on 786-0 renal is more than 100 µM; with SF-295 CNS, 3.04 µM; with EKVX NSCLC, more than 100 µM; in the experiment with A549 NSCLC it was more than 100 µM; in the experiment on HCT-15 colon, more than 100 µM; in the experiment with BT-549 breast, 6.81 µM. This molecule also registered a TGI in the experiment on CCRF-CEM leukemia of more than 100 µM.
Take `O=[N+]([O-])c1ccc(/C=C(/c2ccc([N+](=O)[O-])o2)S(=O)(=O)c2ccccc2)cc1`: the TGI is more than 100 µM in the experiment with 786-0 renal; more than 100 µM in the experiment with SF-295 CNS; 74.1 µM with HL-60(TB) leukemia; more than 100 µM in the experiment with A549 NSCLC; 88.7 µM in the experiment on HCT-15 colon; more than 100 µM with BT-549 breast. In addition, the TGI in the experiment with MOLT-4 leukemia is 37.5 µM; in the experiment on SR leukemia, 36.5 µM.
